This note sets out measurements from patent US10494376B2, “Tetrahydroisoquinoline derived PRMT5-inhibitors” (CTXT PTY LTD, priority 2014, dated 2019).

pIC50: −log10 of the molar value. Structures can show the parent of a compound that is named as a salt.

Chain of Full-length PRMT5 enzyme (NCBI Reference sequence NP_006100.2) co-expressed with His6-MEP50 (O14744 whole entry): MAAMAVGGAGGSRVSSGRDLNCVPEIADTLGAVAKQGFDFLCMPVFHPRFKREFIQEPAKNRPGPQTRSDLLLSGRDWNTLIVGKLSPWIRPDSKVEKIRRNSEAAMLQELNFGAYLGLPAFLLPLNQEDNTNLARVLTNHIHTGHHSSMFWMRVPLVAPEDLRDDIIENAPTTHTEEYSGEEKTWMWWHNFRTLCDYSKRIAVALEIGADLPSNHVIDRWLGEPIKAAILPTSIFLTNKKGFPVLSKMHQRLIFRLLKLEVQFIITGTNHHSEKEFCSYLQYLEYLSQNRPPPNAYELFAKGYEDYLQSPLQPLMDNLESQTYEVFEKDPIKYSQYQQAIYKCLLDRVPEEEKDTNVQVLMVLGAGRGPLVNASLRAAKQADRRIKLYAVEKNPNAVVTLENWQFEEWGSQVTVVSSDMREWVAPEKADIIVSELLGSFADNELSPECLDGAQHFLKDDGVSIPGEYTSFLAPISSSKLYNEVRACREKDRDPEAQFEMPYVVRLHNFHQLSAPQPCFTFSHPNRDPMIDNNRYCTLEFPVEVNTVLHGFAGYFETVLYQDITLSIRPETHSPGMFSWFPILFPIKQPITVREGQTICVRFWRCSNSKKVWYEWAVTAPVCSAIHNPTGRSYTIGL
Chain of Full-length PRMT5 enzyme (NCBI Reference sequence NP_006100.2) co-expressed with His6-MEP50 (Q9BQA1 whole entry partner): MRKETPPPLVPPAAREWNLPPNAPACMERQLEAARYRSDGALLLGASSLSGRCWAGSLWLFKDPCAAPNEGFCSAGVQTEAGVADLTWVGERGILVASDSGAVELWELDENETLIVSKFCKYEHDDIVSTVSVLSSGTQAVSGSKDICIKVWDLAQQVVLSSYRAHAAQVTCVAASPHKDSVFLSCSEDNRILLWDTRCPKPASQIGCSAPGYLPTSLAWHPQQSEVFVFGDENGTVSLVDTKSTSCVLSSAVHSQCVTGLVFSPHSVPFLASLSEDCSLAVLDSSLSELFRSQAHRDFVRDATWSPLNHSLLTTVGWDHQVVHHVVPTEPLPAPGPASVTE

The test concerns the target Full-length PRMT5 enzyme (NCBI Reference sequence NP_006100.2) co-expressed with His6-MEP50 (Homo sapiens (Human), UniProt O14744). The test is described as follows: Revised PRMT5 Biochemical Assay. The conditions noted are these: 1 μM peptide substrate, 1 μM S-Adenosyl methionine, 4 hours at 37 degree Celsius, Transcreener EPIGEN fluorescence polarisation. As to the method: Compounds of the invention may be tested for in vitro activity in the following assay: A histone H4 derived peptide is used as substrate (amino acid sequence: […]N H2). Full-length PRMT5 enzyme (NCBI Reference sequence NP_006100.2) was co-expressed with His6-MEP50 in insect cells and purified via Nickel immobilized metal affinity and gel filtration chromatography (“the enzyme”).
The 6 μL reactions are run in Greiner brand black 384-well low volume assay plates. All reactions contained assay buffer (phosphate buffered saline, 0.01% (v/v) Tween-20, 0.01% (w/v) albumin from chicken egg white, 1 mM Dithiothreitol, 1 μM peptide substrate, 1 μM S-Adenosyl methionine, and 15 ng/reaction enzyme, with the enzyme being omitted from negative control reactions. Compounds were added in a volume of 100 nL from dilution series prepared in DMSO, positive and negative control reactions receiving the same volume DMSO without compound. The plates were sealed with adhesive seals and incubated for 4 hours at 37 degree Celsius. Reaction progress was measured using the Transcreener™ EPIGEN methyltransferase assay (BellBrook Labs, Madison, Wis.) as recommended by the manufacturer. To each reaction 2 μL detection mix were added, containing coupling enzymes, fluorescence polarisation tracer, and AMP antibody. Plates were incubated for 90 minutes before being read on a PerkinElmer EnVision™ plate reader in fluorescence polarisation mode. IC50 values were obtained from the raw readings by calculating percent inhibition (%1) for each reaction relative to controls on the same plate (% I=(I−CN)/(CP−CN) where CN/CP are the averages of the negative/positive reactions, respectively), then fitting the %1 data vs. compound concentration [I] to % I=(A+((B−A)/(1+((C/[I])^D)))) where A is the lower asymptote, B is the upper asymptote, C is the IC50 value, and D is the slope.
On to `CC(C)Oc1cc(C(=O)NC[C@@H](O)[C@@H]2Cc3ccccc3CN2)ccn1` [Example 64, N-((R)-2-hydroxy-2-((S)-1,2,3,4-tetrahydroisoquinolin-3-yl)ethyl)-2-isopropoxyisonicotinamide], for which the pIC50 is 6.58.

`NC(=O)COc1ccccc1C(=O)NC[C@@H](O)[C@@H]1Cc2ccccc2CN1` [Example 65, 2-(2-Amino-2-oxoethoxy)-N-((R)-2-hydroxy-2-((S)-1,2,3,4-tetrahydroisoquinolin-3-yl)ethyl)benzamide] had a pIC50 of 5.64.

`CC(=O)N1CCN(C(=O)c2ccc(C(=O)NC[C@@H](O)[C@@H]3Cc4ccccc4CN3)cc2)CC1` [Example 66, 4-(4-Acetylpiperazine-1-carbonyl)-N-((R)-2-hydroxy-2-((S)-1,2,3,4-tetrahydroisoquinolin-3-yl)ethyl)benzamide] had a pIC50 of 6.48.

`COC(=O)N1CCN(C(=O)c2ccc(C(=O)NC[C@@H](O)[C@@H]3Cc4ccccc4CN3)cc2)CC1` [Example 67, Methyl 4-(4-(((R)-2-hydroxy-2-((S)-1,2,3,4-tetrahydroisoquinolin-3-yl)ethyl)carbamoyl)benzoyl)piperazine-1-carboxylate] had a pIC50 of 6.51.

On to `CC(=O)N1CCC(Oc2ccccc2C(=O)NC[C@@H](O)[C@@H]2Cc3ccccc3CN2)CC1` [Example 68, 2-((1-Acetylpiperidin-4-yl)oxy)-N-((R)-2-hydroxy-2-((S)-1,2,3,4-tetrahydroisoquinolin-3-yl)ethyl)benzamide], for which the negative logarithm of the IC50 (pIC50) is 5.65.

For the compound `CCOc1nc(C(=O)N2C3CCC2COC3)ccc1C(=O)NC[C@@H](O)[C@@H]1Cc2ccccc2CN1` [Example 70, 6-(3-Oxa-8-azabicyclo[3.2.1]octane-8-carbonyl)-2-ethoxy-N-((R)-2-hydroxy-2-((S)-1,2,3,4-tetrahydroisoquinolin-3-yl)ethyl)nicotinamide], the pIC50 was 6.92. This pIC50 is 1.27 log units higher than that of the compound before.

As for `COc1cc(C(=O)NC[C@@H](O)[C@@H]2Cc3ccccc3CN2)ccn1` [Example 71, N-((R)-2-Hydroxy-2-((S)-1,2,3,4-tetrahydroisoquinolin-3-yl)ethyl)-2-methoxyisonicotinamide dihydrochloride], the pIC50 is 6.03. Compared with the last compound, the pIC50 is 0.89 log units lower.

Turning to `O=C(NC[C@@H](O)[C@@H]1Cc2ccccc2CN1)c1ccc(CC(=O)N2CCCCC2)nc1` [Example 72, N-((R)-2-Hydroxy-2-((S)-1,2,3,4-tetrahydroisoquinolin-3-yl)ethyl)-6-(2-oxo-2-(piperidin-1-yl)ethyl)nicotinamide dihydrochloride], the pIC50 was 6.23.

Compound `O=C(NC[C@@H](O)[C@@H]1Cc2ccccc2CN1)c1ccnc(C2CCOCC2)c1` [Example 73, N-((R)-2-Hydroxy-2-((S)-1,2,3,4-tetrahydroisoquinolin-3-yl)ethyl)-2-(tetrahydro-2H-pyran-4-yl)isonicotinamide dihydrochloride] showed a negative-log IC50 (pIC50) of 5.64. Against the preceding compound, the pIC50 is 0.59 log units lower.

As for `O=C(NC[C@@H](O)[C@@H]1Cc2ccccc2CN1)c1cc(OC2CCOCC2)ncc1Cl` [Example 75, 5-Chloro-N-((R)-2-hydroxy-2-((S)-1,2,3,4-tetrahydroisoquinolin-3-yl)ethyl)-2-((tetrahydro-2H-pyran-4-yl)oxy)isonicotinamide dihydrochloride], the pIC50 is 5.92.

For the compound `COC(=O)N1CCC(Oc2cc(C(=O)NC[C@@H](O)[C@@H]3Cc4ccccc4CN3)ncn2)CC1` [Example 76, Methyl 4-((6-(((R)-2-hydroxy-2-((S)-1,2,3,4-tetrahydroisoquinolin-3-yl)ethyl)carbamoyl)pyrimidin-4-yl)oxy)piperidine-1-carboxylate dihydrochloride], the pIC50 is 6.58. This pIC50 lies 0.66 log units higher than the previous one.

In the case of `O=C(NC[C@@H](O)[C@@H]1Cc2ccccc2CN1)c1ccncc1` [Example 77, N-((R)-2-Hydroxy-2-((S)-1,2,3,4-tetrahydroisoquinolin-3-yl)ethyl)isonicotinamide dihydrochloride], the pIC50 is 5.06.

Compound `O=C(NC[C@@H](O)[C@@H]1Cc2ccccc2CN1)c1cccnc1` [Example 78, N-((R)-2-Hydroxy-2-((S)-1,2,3,4-tetrahydroisoquinolin-3-yl)ethyl)nicotinamide dihydrochloride] showed a pIC50 of 5.77. This pIC50 is 0.71 log units higher than that of the compound before.

Take `O=C(NC[C@@H](O)[C@@H]1Cc2ccccc2CN1)c1ccc(C(=O)N2C3CCC2COC3)c(C(F)F)c1` [Example 85, 4-(3-Oxa-8-azabicyclo[3.2.1]octane-8-carbonyl)-3-(difluoromethyl)-N-((R)-2-hydroxy-2-((S)-1,2,3,4-tetrahydroisoquinolin-3-yl)ethyl)benzamide]: the pIC50 is 6.55.

With `O=C(NC[C@@H](O)[C@@H]1Cc2ccccc2CN1)c1ccnc(C(F)(F)F)c1` [Example 86, N-((R)-2-Hydroxy-2-((S)-1,2,3,4-tetrahydroisoquinolin-3-yl)ethyl)-2-(trifluoromethyl)isonicotinamide dihydrochloride], the pIC50 is 5.42.

For the compound `COc1cc(C(=O)N2C3CCC2COC3)ccc1C(=O)NC[C@@H](O)[C@@H]1Cc2ccccc2CN1` [Example 87, 4-(3-Oxa-8-azabicyclo[3.2.1]octane-8-carbonyl)-N-((R)-2-hydroxy-2-((S)-1,2,3,4-tetrahydroisoquinolin-3-yl)ethyl)-2-methoxybenzamide hydrochloride], the negative-log IC50 (pIC50) was 7.24.

`CC(=O)N1CCC(c2nc3cc(C(=O)NC[C@@H](O)[C@@H]4Cc5ccccc5CN4)ccc3[nH]2)CC1` [Example 88, 2-(1-Acetylpiperidin-4-yl)-N-((R)-2-hydroxy-2-((S)-1,2,3,4-tetrahydroisoquinolin-3-yl)ethyl)-1H-benzo[d]imidazole-5-carboxamide] gave a pIC50 of 6.73.

`CCOc1cc(-c2nnc(C)o2)ccc1C(=O)NC[C@@H](O)[C@@H]1Cc2ccccc2CN1` [Example 89, 2-Ethoxy-N-((R)-2-hydroxy-2-((S)-1,2,3,4-tetrahydroisoquinolin-3-yl)ethyl)-4-(5-methyl-1,3,4-oxadiazol-2-yl)benzamide]: the pIC50 is 6.69.

Consider `O=C(NC[C@@H](O)[C@@H]1Cc2ccccc2CN1)c1ccc(C(=O)N2CCCC2)cc1` [Example 90, N-((R)-2-Hydroxy-2-((S)-1,2,3,4-tetrahydroisoquinolin-3-yl)ethyl)-4-(pyrrolidine-1-carbonyl)benzamide], for which the pIC50 was 6.02.

Compound `O=C(NC[C@@H](O)[C@@H]1Cc2ccccc2CN1)c1ccc(C(=O)N2C3CCC2CC3)cc1` [Example 91, 4-(7-Azabicyclo[2.2.1]heptane-7-carbonyl)-N-((R)-2-hydroxy-2-((S)-1,2,3,4-tetrahydroisoquinolin-3-yl)ethyl)benzamide] gave a pIC50 of 6.91.

Consider `COC1CCN(C(=O)c2ccc(C(=O)NC[C@@H](O)[C@@H]3Cc4ccccc4CN3)cc2)CC1` [Example 92, N-((R)-2-Hydroxy-2-((S)-1,2,3,4-tetrahydroisoquinolin-3-yl)ethyl)-4-(4-methoxypiperidine-1-carbonyl)benzamide], for which the pIC50 was 6.51.

Compound `O=C(NC[C@@H](O)[C@@H]1Cc2ccccc2CN1)c1ccc(C(=O)N2CCCCO2)cc1` [Example 93, N-((R)-2-Hydroxy-2-((S)-1,2,3,4-tetrahydroisoquinolin-3-yl)ethyl)-4-(1,2-oxazinane-2-carbonyl)benzamide] showed a pIC50 of 6.12. This pIC50 is 0.39 log units lower than that of the compound before.

Take `O=C(NC[C@@H](O)[C@@H]1Cc2ccccc2CN1)c1ccc(C(=O)NC2CCS(=O)(=O)CC2)cc1` [Example 95, N^1-(1,1-Dioxidotetrahydro-2H-thiopyran-4-yl)-N^4-((R)-2-hydroxy-2-((S)-1,2,3,4-tetrahydroisoquinolin-3-yl)ethyl)terephthalamide]: the pIC50 was 5.01.

`O=C(NC[C@@H](O)[C@@H]1Cc2ccccc2CN1)c1ccc(C(=O)N2Cc3cccnc3C2)cc1` [Example 96, 4-(6,7-Dihydro-5H-pyrrolo[3,4-b]pyridine-6-carbonyl)-N-((R)-2-hydroxy-2-((S)-1,2,3,4-tetrahydroisoquinolin-3-yl)ethyl)benzamide] had a pIC50 of 5.86.

As to `CC(C)NC(=O)c1ccc(C(=O)NC[C@@H](O)[C@@H]2Cc3ccccc3CN2)cc1` [Example 97, N^1-((R)-2-Hydroxy-2-((S)-1,2,3,4-tetrahydroisoquinolin-3-yl)ethyl)-N^4-isopropylterephthalamide], the pIC50 is 4.73.

`O=C(NC[C@@H](O)[C@@H]1Cc2ccccc2CN1)c1ccc(Cl)nc1` [Example 98, 6-Chloro-N—((R)-2-hydroxy-2-((S)-1,2,3,4-tetrahydroisoquinolin-3-yl)ethyl)nicotinamide hydrochloride] had a pIC50 of 6.64.

For `O=C(NC[C@@H](O)[C@@H]1Cc2ccccc2CN1)c1ccc(OC2CCNCC2)nc1` [Example 99, N—((R)-2-Hydroxy-2-((S)-1,2,3,4-tetrahydroisoquinolin-3-yl)ethyl)-6-(piperidin-4-yloxy)nicotinamide trihydrochloride], the pIC50 was 6.90. Against the preceding compound, the pIC50 is 0.26 log units higher.

`O=C(NC[C@@H](O)[C@@H]1Cc2ccccc2CN1)c1cc(NC2COC2)ncn1` [Example 107, N—((R)-2-Hydroxy-2-((S)-1,2,3,4-tetrahydroisoquinolin-3-yl)ethyl)-6-(oxetan-3-ylamino)pyrimidine-4-carboxamide]: the pIC50 is 6.26. Compared with the last compound, the pIC50 is 0.64 log units lower.
